Test [1] concerns the target T1, human MCH-1R (Homo sapiens, UniProt Q99705). As to the kind of experiment: Aequorin bioluminescence functional assay, MCH-1R. Conditions: Table 3; % Activation at 10 μM, aequorin functional assay.
For another test, the target named is human MCH-R2 (Homo sapiens, UniProt Q969V1). Put plainly: Aequorin bioluminescence functional assay, MCH-2R. Conditions: Table 3; % Activation at 10 μM, aequorin functional assay.
Test [2] addresses T1, human MCH-1R. Put plainly: Radiolabeled MCH-R binding assay (SPA based), MCH-1R.
Method: Cell membranes were prepared on ice. Each T-75 flask was rinsed twice with 10 ml of Enzyme-free Cell Dissociation Buffer (Specialty Media, Lavallette, N.J.), and the cell monolayer was detached in an additional 10 ml of Enzyme-free Cell Dissociation Buffer by incubation at room temperature for 10 minutes. Dissociated cells were centrifuged (500×g for 10 minutes at 4° C.), resuspended in 5 ml homogenization buffer (10 mM Tris-HCl, pH 7.4, 0.01 mM Pefabloc, 10 μM phosphoramidon, 40 μg/ml bacitracin) and then homogenized using a glass homogenizer (10-15 strokes). The homogenate was centrifuged for 10 minutes (1,000×g at 4° C.). The resulting supernatant was then centrifuged at 38,700×g for 15 minutes at 4° C. Pelleted membranes were resuspended (passed through 25 gauge needle 5 times), snap-frozen on liquid nitrogen, and stored at −80° C. until use.
For the SPA-based assay, WGA-PVT beads (NEN Life Sciences Products) were resuspended in Dulbecco's PBS with calcium and magnesium (500 mg beads in 4 ml PBS). […] The suspension was mixed gently for 20 minutes, 12.3 ml of assay buffer and protease inhibitors were added (final concentration given): 2 μg/ml leupeptin, 10 μM phosphoramidon, 40 μg/ml bacitracin, 5 μg/ml aprotinin, 0.1 mM Pefabloc.
Coated beads were kept on ice until use. […] Binding reactions were allowed to proceed at room temperature for 3 hours. Quantitation was performed by scintillation counting (TopCount device).
The next test deals with human MCH-2R (Homo sapiens, UniProt Q969V1). Put plainly: Radiolabeled MCH-R binding assay (SPA based), MCH-2R. The note with it: MCH-2R IC50 (nM), Table 3.
human MCH-2R, sequence (Q969V1 whole entry): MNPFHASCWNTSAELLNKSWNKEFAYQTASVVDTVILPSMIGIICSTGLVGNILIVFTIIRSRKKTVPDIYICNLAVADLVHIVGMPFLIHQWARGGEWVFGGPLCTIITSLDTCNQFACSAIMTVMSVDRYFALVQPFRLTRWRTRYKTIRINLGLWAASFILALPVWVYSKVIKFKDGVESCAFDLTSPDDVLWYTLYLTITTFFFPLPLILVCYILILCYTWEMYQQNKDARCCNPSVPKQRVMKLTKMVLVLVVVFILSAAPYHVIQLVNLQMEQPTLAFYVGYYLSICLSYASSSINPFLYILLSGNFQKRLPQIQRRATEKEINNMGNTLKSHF

Where a SMILES comes first, the peptide text is derived from it. Bridges are numbered along the chain shown (N, C = ends).

T1 sequence (Q99705 whole entry): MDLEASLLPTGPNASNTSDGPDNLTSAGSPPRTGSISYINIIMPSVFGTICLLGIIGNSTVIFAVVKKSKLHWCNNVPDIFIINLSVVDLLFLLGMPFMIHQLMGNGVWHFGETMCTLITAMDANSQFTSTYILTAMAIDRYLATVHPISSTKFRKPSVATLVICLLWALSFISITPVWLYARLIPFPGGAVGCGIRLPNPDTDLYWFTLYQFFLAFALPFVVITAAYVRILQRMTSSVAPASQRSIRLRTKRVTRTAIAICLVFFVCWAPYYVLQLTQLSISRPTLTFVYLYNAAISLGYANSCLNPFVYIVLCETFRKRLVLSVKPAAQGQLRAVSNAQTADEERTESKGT
human MCH-R2, sequence (Q969V1 whole entry): as the sequence (Q969V1 whole entry) above

As to `CSCC[C@H](NC(=O)[C@H](CC(=O)O)NC(=O)[C@H](Cc1ccccc1)NC(=O)[C@@H](N)CC(=O)O)C(=O)N[C@@H](C)C(=O)N[C@@H](CCCNC(=N)N)C(=O)N[C@H]1CSSC[C@@H](C(=O)N[C@@H](Cc2c[nH]c3ccccc23)C(=O)N[C@@H](CCC(N)=O)C(=O)N[C@H](C(=O)O)C(C)C)NC(=O)[C@@H]2CCCN2C(=O)[C@H](CCCNC(=N)N)NC(=O)[C@H](Cc2ccc(O)cc2)NC(=O)[C@H](C(C)C)NC(=O)[C@H](CCCNC(=N)N)NC(=O)CNC(=O)[C@H](CC(C)C)NC(=O)[C@H](CCSC)NC1=O` [compound 45] (H-DFDMARCMLGRVYRPCWQV-OH; disulfide 7-16; N-terminus and C-terminus assumed), on human MCH-1R [1], the “MCH-1R Activation %” value is reported as 96%. Besides, the “MCH-2R Activation %” value at human MCH-R2 is given as 94%. The values for the IC50 on human MCH-1R [2] and on human MCH-2R were 0.3 nM and 2 nM, respectively.
